The values that follow come from patent US11472808B2, “Substituted pyrrolo[1,2-c]pyrimidines as hepatitis B antiviral agents” (Enanta Pharmaceuticals, Inc., priority 2019, dated 2022).

Each structure is given as a SMILES string.

For the assay, the system named is HBV. Description: HepAD38 anti-HBV assay: reduction of viral product accumulation (virion DNA qPCR, HBsAg/HBeAg ELISA). It is filed as cell-based. The conditions noted are these: Hepatitis B virus, 120 h; HepAD38 cells; concentration reducing viral product accumulation by 50% relative to no drug controls; harvest five days after compound addition; read-out: HepAD38 EC50. On the procedure: Methods: HepAD38 cells are maintained as previously reported (Ladner et al, Antimicrob. Agents Chemother. 1997, […], 1715). Briefly, cells are passaged upon attaining confluency in DMEM/F12 media in the presence of 10% FBS, Penn/Strep, 250 μg/mL G418, and 1 μg/ml tetracycline. Novel compounds are screened by first washing cells three times with PBS to remove tetracycline, and plating in 96 well plates at 35,000 cells/well. Compounds dissolved in DMSO are then diluted 1:200 into wells containing cells. Five days after compound addition, material is harvested for analysis. For an extended 8 day analysis, cells are plated and treated as described above, but media and compound are refreshed on d2 and d5 post initial treatment.
On harvest day, virion DNA is obtained by lysing with Sidestep Lysis and Stabilization Buffer and then quantified via quantitative real time PCR. Commercially available ELISA kits are used to quantitate the viral proteins HBsAg (Alpco) or HbeAg (US Biological) by following the manufacturer's recommended protocol after diluting samples to match the linear range of their respective assays. Irrespective of readout, compound concentrations that reduce viral product accumulation in the cell lysates or supernatants by 50% relative to no drug controls (EC50) are reported; EC50 ranges are as follows: A<0.1 μM; B 0.1-0.4 μM; C>0.4 μM.
In general terms: In qPCR the cycle at which signal appears reflects the starting amount.
`O=C(N[C@H]1CC2=C(c3ccn(C(F)F)n3)[C@H](c3ccc(F)cc3Cl)N=C(c3nccs3)N2C1)c1ncccn1` [Example 232]: the EC50 (usually the midpoint of the concentration-response curve) was < 100 nM.

As for `C=CC1(F)CC2=C(c3ccn(C(F)F)n3)[C@H](c3ccc(F)cc3Cl)N=C(c3nccs3)N2C1` (stereo partly shown) [Example 171], the EC50 fell in the range of 100 to 400 nM.

Turning to `O=S(=O)(N[C@H]1CC2=C(c3ccn(C(F)F)n3)[C@H](c3ccc(F)cc3Cl)N=C(c3nccs3)N2C1)c1cc(Cl)cc(Cl)c1` [Example 395], the EC50 lay within 100 to 400 nM.

Take `O=C(NC[C@@]1(F)CC2=C(c3ccn(C(F)F)n3)[C@H](c3ccc(F)cc3Cl)N=C(c3nccs3)N2C1)OCc1ccccc1` [Example 187]: the EC50 was > 400 nM.

Consider `O=S(=O)(NC(CO)c1ccccn1)N[C@H]1CC2=C(c3ccn(C(F)F)n3)[C@H](c3ccc(F)cc3Cl)N=C(c3nccs3)N2C1` (stereo partly shown) [Example 338], for which the EC50 was < 100 nM.

Consider `C=CCNC[C@]1(N)CC2=C(c3ccn(C(F)F)n3)[C@H](c3ccc(F)cc3Cl)N=C(c3nccs3)N2C1` [Example 147], for which the EC50 was > 400 nM.

On to `O=C(O)[C@H]1C[C@@H](S(=O)(=O)N[C@H]2CC3=C(c4ccn(C(F)F)n4)[C@H](c4ccc(F)cc4Cl)N=C(c4nccs4)N3C2)C1` [Example 17], for which the EC50 was in the range of 100 to 400 nM.

Take `COC(=O)CC1CCN(C(=O)CC2CCN(CCS(=O)(=O)N[C@H]3CC4=C(c5ccn(C(F)F)n5)[C@H](c5ccc(F)cc5Cl)N=C(c5nccs5)N4C3)CC2)CC1` [Example 62]: the EC50 was < 100 nM.

`COC[C@@]1(O)CC2=C(c3ccn(C(F)F)n3)[C@H](c3ccc(F)cc3Cl)N=C(c3nccs3)N2C1` [Example 106]: the EC50 is > 400 nM.

With `C#CCNC[C@@]1(O)CC2=C(c3ccn(C(F)F)n3)[C@H](c3ccc(F)cc3Cl)N=C(c3nccs3)N2C1` [Example 114], the EC50 is > 400 nM.

As for `COC(=O)N[C@H]1CC2=C(c3ccn(C(F)F)n3)[C@H](c3ccc(F)cc3Cl)N=C(c3nccs3)N2C1` [Example 198], the EC50 was < 100 nM.

`O=S(=O)(N[C@H]1CC2=C(c3ccn(C(F)F)n3)[C@H](c3ccc(F)cc3Cl)N=C(c3nccs3)N2C1)c1ccc2ncccc2c1` [Example 397]: the EC50 was < 100 nM.

On to `C[C@@H](NS(=O)(=O)N[C@H]1CC2=C(c3ccn(C(F)F)n3)[C@H](c3ccc(F)cc3Cl)N=C(c3nccs3)N2C1)c1ccccn1` [Example 159], for which the EC50 was > 400 nM.

Turning to `O=C(O)C1CCCN1CCS(=O)(=O)N[C@H]1CC2=C(c3ccn(C(F)F)n3)[C@H](c3ccc(F)cc3Cl)N=C(c3nccs3)N2C1` (stereo partly shown) [Example 65], the EC50 is > 400 nM.

As to `O=C(N[C@H]1CC2=C(c3ccn(C(F)F)n3)[C@H](c3ccc(F)cc3Cl)N=C(c3nccs3)N2C1)N1CCS(=O)(=O)CC1` [Example 219], the EC50 was in the range of 100 to 400 nM.

Take `Cc1ccc(S(=O)(=O)N2CCN([C@H]3CC4=C(c5ccn(C(F)F)n5)[C@H](c5ccc(F)cc5Cl)N=C(c5nccs5)N4C3)CC2)cc1` [Example 44]: the EC50 was > 400 nM.

As for `O=C(N[C@H]1CC2=C(c3ccn(C(F)F)n3)[C@H](c3ccc(F)cc3Cl)N=C(c3nccs3)N2C1)c1cccc(C2CC2)n1` [Example 248], the EC50 was > 400 nM.

In the case of `O=C(N[C@H]1CC2=C(c3ccn(C(F)F)n3)[C@H](c3ccc(F)cc3Cl)N=C(c3nccs3)N2C1)N1C[C@@H](O)[C@@H](O)C1` [Example 226], the EC50 lay in the range of 100 to 400 nM.

For the molecule `CSC[C@]1(O)CC2=C(c3ccn(C(F)F)n3)[C@H](c3ccc(F)cc3Cl)N=C(c3nccs3)N2C1` [Example 143], the EC50 was 100 to 400 nM.

As for `O=C(N[C@H]1CC2=C(c3ccn(C(F)F)n3)[C@H](c3ccc(F)cc3Cl)N=C(c3nccs3)N2C1)c1ccncc1` [Example 231], the EC50 was < 100 nM.

`O=C(N[C@H]1CC2=C(c3ccn(C(F)F)n3)[C@H](c3ccc(F)cc3Cl)N=C(c3nccs3)N2C1)C1CCC(O)CC1` (stereo partly shown) [Example 249]: the EC50 lay in the range of 100 to 400 nM.

As for `CS(=O)(=O)NC[C@@]1(N)CC2=C(c3ccn(C(F)F)n3)[C@H](c3ccc(F)cc3Cl)N=C(c3nccs3)N2C1` [Example 148], the EC50 is > 400 nM.
